What was measured:
[1] = xn = mol fraction of the nth substance listed; conditions: 101 kPa, Liquid, Vibrating tube method
[2] = excess molar enthalpy (molar enthalpy of mixing); xn = mol fraction of the nth substance listed; conditions: 101 kPa, Liquid, Calvet calorimetry
[3] = 101.33 kPa, Liquid, Vibrating tube method
[4] = refractive index (Na D-line) (dimensionless); conditions: 101.33 kPa, Liquid, Standard Abbe refractometry

CCOC=O [ethyl methanoate] + CCCCC
Conditions	excess molar enthalpy [kcal/mol]	mass density [kg/m3]
[1], 291.15 K, x1 = 0.054	–	637.14
[1], 291.15 K, x1 = 0.063	–	638.38
[1], 291.15 K, x1 = 0.118	–	649.24
[1], 291.15 K, x1 = 0.161	–	658.03
[1], 291.15 K, x1 = 0.208	–	668.06
[1], 291.15 K, x1 = 0.305	–	689.98
[1], 291.15 K, x1 = 0.35	–	701.21
[1], 291.15 K, x1 = 0.405	–	715.14
[1], 291.15 K, x1 = 0.499	–	741.07
[1], 291.15 K, x1 = 0.595	–	769.91
[1], 291.15 K, x1 = 0.656	–	789.59
[1], 291.15 K, x1 = 0.751	–	822.65
[1], 291.15 K, x1 = 0.794	–	838.31
[1], 291.15 K, x1 = 0.85	–	859.54
[1], 291.15 K, x1 = 0.895	–	877.8
[1], 291.15 K, x1 = 0.941	–	896.94
[1], 291.15 K, x1 = 1	–	923.4
[1], 298.15 K, x1 = 0.058	–	631.15
[1], 298.15 K, x1 = 0.101	–	639.36
[1], 298.15 K, x1 = 0.104	–	639.54
[1], 298.15 K, x1 = 0.196	–	658.7
[1], 298.15 K, x1 = 0.252	–	670.7
[1], 298.15 K, x1 = 0.304	–	682.9
[1], 298.15 K, x1 = 0.405	–	708.3
[1], 298.15 K, x1 = 0.496	–	733.3
[1], 298.15 K, x1 = 0.609	–	766.9
[1], 298.15 K, x1 = 0.702	–	797.1
[1], 298.15 K, x1 = 0.801	–	832.2
[1], 298.15 K, x1 = 0.858	–	854.37
[1], 298.15 K, x1 = 0.909	–	875.28
[1], 298.15 K, x1 = 0.953	–	893.59
[1], 298.15 K, x1 = 1	–	914.35
[2], 291.15 K, x1 = 0.0907	0.109	–
[2], 291.15 K, x1 = 0.1625	0.1671	–
[2], 291.15 K, x1 = 0.2451	0.223	–
[2], 291.15 K, x1 = 0.3245	0.2663	–
[2], 291.15 K, x1 = 0.3983	0.2937	–
[2], 291.15 K, x1 = 0.4484	0.3043	–
[2], 291.15 K, x1 = 0.4961	0.3093	–
[2], 291.15 K, x1 = 0.536	0.3057	–
[2], 291.15 K, x1 = 0.5703	0.3	–
[2], 291.15 K, x1 = 0.605	0.2945	–
[2], 291.15 K, x1 = 0.6447	0.2818	–
[2], 291.15 K, x1 = 0.6893	0.2653	–
[2], 291.15 K, x1 = 0.7332	0.2445	–
[2], 291.15 K, x1 = 0.7743	0.2182	–
[2], 291.15 K, x1 = 0.8244	0.1855	–
[2], 291.15 K, x1 = 0.874	0.1465	–
[2], 291.15 K, x1 = 0.9259	0.0968	–
[2], 291.15 K, x1 = 0.9621	0.0454	–
[2], 298.15 K, x1 = 0.0714	0.106	–
[2], 298.15 K, x1 = 0.1517	0.1922	–
[2], 298.15 K, x1 = 0.2221	0.2512	–
[2], 298.15 K, x1 = 0.3085	0.299	–
[2], 298.15 K, x1 = 0.3849	0.3186	–
[2], 298.15 K, x1 = 0.445	0.3217	–
[2], 298.15 K, x1 = 0.4999	0.3236	–
[2], 298.15 K, x1 = 0.5411	0.32	–
[2], 298.15 K, x1 = 0.5726	0.3143	–
[2], 298.15 K, x1 = 0.6159	0.3069	–
[2], 298.15 K, x1 = 0.6668	0.2935	–
[2], 298.15 K, x1 = 0.7209	0.2717	–
[2], 298.15 K, x1 = 0.7702	0.2428	–
[2], 298.15 K, x1 = 0.8273	0.2065	–
[2], 298.15 K, x1 = 0.8813	0.16	–
[2], 298.15 K, x1 = 0.9227	0.104	–
[2], 298.15 K, x1 = 0.9662	0.049	–

CCCCOC=O [butyl methanoate] + CCCCC
Conditions	excess molar enthalpy [kcal/mol]	mass density [kg/m3]
[1], 291.15 K, x1 = 0.0482	–	640.01
[1], 291.15 K, x1 = 0.1029	–	654.1
[1], 291.15 K, x1 = 0.1541	–	667.59
[1], 291.15 K, x1 = 0.2028	–	680.41
[1], 291.15 K, x1 = 0.2999	–	706.35
[1], 291.15 K, x1 = 0.3486	–	719.53
[1], 291.15 K, x1 = 0.453	–	747.88
[1], 291.15 K, x1 = 0.5029	–	761.43
[1], 291.15 K, x1 = 0.5974	–	786.96
[1], 291.15 K, x1 = 0.7	–	814.79
[1], 291.15 K, x1 = 0.8074	–	843.81
[1], 291.15 K, x1 = 0.8966	–	868.4
[1], 291.15 K, x1 = 0.9452	–	881.04
[1], 291.15 K, x1 = 1	–	895.86
[1], 298.15 K, x1 = 0.0584	–	635.57
[1], 298.15 K, x1 = 0.1147	–	650.09
[1], 298.15 K, x1 = 0.1936	–	670.91
[1], 298.15 K, x1 = 0.301	–	699.46
[1], 298.15 K, x1 = 0.343	–	710.8
[1], 298.15 K, x1 = 0.3886	–	723.15
[1], 298.15 K, x1 = 0.4521	–	740.45
[1], 298.15 K, x1 = 0.4958	–	752.3
[1], 298.15 K, x1 = 0.5442	–	765.49
[1], 298.15 K, x1 = 0.6477	–	793.55
[1], 298.15 K, x1 = 0.7529	–	822.18
[1], 298.15 K, x1 = 0.8993	–	861.53
[1], 298.15 K, x1 = 1	–	888.47
[2], 291.15 K, x1 = 0.0661	0.0774	–
[2], 291.15 K, x1 = 0.1254	0.1231	–
[2], 291.15 K, x1 = 0.1836	0.1594	–
[2], 291.15 K, x1 = 0.2321	0.1862	–
[2], 291.15 K, x1 = 0.2846	0.2041	–
[2], 291.15 K, x1 = 0.3351	0.2141	–
[2], 291.15 K, x1 = 0.3832	0.2196	–
[2], 291.15 K, x1 = 0.4276	0.2208	–
[2], 291.15 K, x1 = 0.4704	0.2187	–
[2], 291.15 K, x1 = 0.5095	0.2156	–
[2], 291.15 K, x1 = 0.5587	0.2084	–
[2], 291.15 K, x1 = 0.6121	0.1965	–
[2], 291.15 K, x1 = 0.6666	0.1781	–
[2], 291.15 K, x1 = 0.7272	0.1522	–
[2], 291.15 K, x1 = 0.799	0.118	–
[2], 291.15 K, x1 = 0.8702	0.076	–
[2], 291.15 K, x1 = 0.9372	0.0394	–
[2], 298.15 K, x1 = 0.0471	0.0748	–
[2], 298.15 K, x1 = 0.0941	0.13	–
[2], 298.15 K, x1 = 0.1606	0.1769	–
[2], 298.15 K, x1 = 0.2273	0.2079	–
[2], 298.15 K, x1 = 0.2903	0.228	–
[2], 298.15 K, x1 = 0.3523	0.238	–
[2], 298.15 K, x1 = 0.4102	0.24	–
[2], 298.15 K, x1 = 0.4611	0.2361	–
[2], 298.15 K, x1 = 0.5095	0.2292	–
[2], 298.15 K, x1 = 0.5166	0.2254	–
[2], 298.15 K, x1 = 0.5673	0.2163	–
[2], 298.15 K, x1 = 0.6237	0.202	–
[2], 298.15 K, x1 = 0.6862	0.1773	–
[2], 298.15 K, x1 = 0.754	0.1511	–
[2], 298.15 K, x1 = 0.8174	0.1202	–
[2], 298.15 K, x1 = 0.8803	0.0815	–
[2], 298.15 K, x1 = 0.9477	0.0402	–

CCCCC [pentane] + CCOC=O
[1], x2 = 0
Conditions	mass density [kg/m3]
291.15 K	627.86
298.15 K	620.89

CCCCC [pentane] + CCCCOC=O
[1], x2 = 0
Conditions	mass density [kg/m3]
291.15 K	627.86
298.15 K	620.89

CCCCC [pentane]
Conditions	mass density, [3] [kg/m3]	refractive index, [4]
291.15 K	627.86	1.3589
298.15 K	620.89	1.3545

CCOC=O [ethyl methanoate]
Conditions	mass density, [3] [kg/m3]	refractive index, [4]
291.15 K	923.4	1.3614
298.15 K	914.35	1.358

COC=O [methyl methanoate]
Conditions	mass density, [3] [kg/m3]	refractive index, [4]
291.15 K	977.21	1.3452
298.15 K	966.54	1.3415
